Measured values from publication PMC12325182, “Discovery of novel and potent celastrol derivatives as PRDX1 inhibitors for cancer therapy through structure-based virtual screening” (Frontiers in Pharmacology, 2025).

Key:
Test in all cases: Kinase selectivity assay
Type in all cases: biochemical
ABL2 = biological target: T1, ABL2 (Homo sapiens, UniProt P42684); settings: target ABL2; read-out: CP1 IC50
T1 construct: ICE Biosciences (Beijing, China), ran the assays
Description: (§1) The selectivity of CP1 for PRDX1 was evaluated through kinase selectivity assays against other PRDX family members and a panel of kinases. The experiments were conducted by ICE Biosciences (Beijing, China).

KDR = KDR (Homo sapiens, UniProt P35968); settings: target KDR; read-out: CP1 IC50
Description: as §1

NTRK2 = NTRK2 (Homo sapiens, UniProt Q16620)
Description: as §1

PRDX6 = biological target: T2, PRDX6 (Homo sapiens, UniProt P30041)
T2 construct: ICE Biosciences (Beijing, China), ran the assays
Description: as §1

MUSK = MUSK (Homo sapiens, UniProt O15146); settings: target MUSK; read-out: CP1 IC50
Description: as §1

FGFR4 = biological target: T3, FGFR4 (Homo sapiens, UniProt P22455); settings: target FGFR4; read-out: CP1 IC50
T3 construct: assay run by ICE Biosciences (Beijing, China)
Description: as §1

ERBB4 = ERBB4 (Homo sapiens, UniProt Q15303); settings: target ERBB4; read-out: CP1 IC50
Description: as §1

FLT3 = biological target: T4, FLT3 (Homo sapiens, UniProt P36888); settings: target FLT3; read-out: CP1 IC50
T4 construct: assay run by ICE Biosciences (Beijing, China)
T4 sequence (P36888 27-993): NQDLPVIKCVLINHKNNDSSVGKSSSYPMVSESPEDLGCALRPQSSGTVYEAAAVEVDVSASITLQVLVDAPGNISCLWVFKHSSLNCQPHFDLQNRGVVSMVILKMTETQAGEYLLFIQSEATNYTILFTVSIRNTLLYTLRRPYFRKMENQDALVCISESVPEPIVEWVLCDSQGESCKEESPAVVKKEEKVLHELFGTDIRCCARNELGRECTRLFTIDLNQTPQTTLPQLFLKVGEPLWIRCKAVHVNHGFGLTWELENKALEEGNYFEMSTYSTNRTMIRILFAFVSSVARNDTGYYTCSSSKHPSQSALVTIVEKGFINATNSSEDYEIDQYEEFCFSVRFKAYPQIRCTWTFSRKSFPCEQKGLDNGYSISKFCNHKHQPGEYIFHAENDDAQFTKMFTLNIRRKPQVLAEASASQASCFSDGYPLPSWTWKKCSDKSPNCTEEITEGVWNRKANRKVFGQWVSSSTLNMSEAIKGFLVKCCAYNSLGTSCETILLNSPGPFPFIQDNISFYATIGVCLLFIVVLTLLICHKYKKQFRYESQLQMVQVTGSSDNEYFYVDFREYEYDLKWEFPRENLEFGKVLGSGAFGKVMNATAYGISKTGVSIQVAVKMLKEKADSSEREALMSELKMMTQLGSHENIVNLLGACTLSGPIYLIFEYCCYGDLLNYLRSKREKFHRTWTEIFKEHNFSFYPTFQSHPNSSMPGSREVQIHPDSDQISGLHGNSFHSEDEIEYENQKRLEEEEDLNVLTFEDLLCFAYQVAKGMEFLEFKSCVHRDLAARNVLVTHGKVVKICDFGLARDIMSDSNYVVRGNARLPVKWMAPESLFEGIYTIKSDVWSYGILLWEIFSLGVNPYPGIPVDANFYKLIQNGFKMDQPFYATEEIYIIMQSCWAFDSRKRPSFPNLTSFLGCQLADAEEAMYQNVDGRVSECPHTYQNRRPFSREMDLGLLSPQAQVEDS
Description: as §1

AXL = biological target: T5, AXL (Homo sapiens, UniProt P30530); settings: target AXL; read-out: CP1 IC50
T5 construct: ICE Biosciences (Beijing, China), ran the assays
Description: as §1

KIT = KIT (Homo sapiens, UniProt P10721); settings: target KIT; read-out: CP1 IC50
KIT, sequence (P10721 26-976): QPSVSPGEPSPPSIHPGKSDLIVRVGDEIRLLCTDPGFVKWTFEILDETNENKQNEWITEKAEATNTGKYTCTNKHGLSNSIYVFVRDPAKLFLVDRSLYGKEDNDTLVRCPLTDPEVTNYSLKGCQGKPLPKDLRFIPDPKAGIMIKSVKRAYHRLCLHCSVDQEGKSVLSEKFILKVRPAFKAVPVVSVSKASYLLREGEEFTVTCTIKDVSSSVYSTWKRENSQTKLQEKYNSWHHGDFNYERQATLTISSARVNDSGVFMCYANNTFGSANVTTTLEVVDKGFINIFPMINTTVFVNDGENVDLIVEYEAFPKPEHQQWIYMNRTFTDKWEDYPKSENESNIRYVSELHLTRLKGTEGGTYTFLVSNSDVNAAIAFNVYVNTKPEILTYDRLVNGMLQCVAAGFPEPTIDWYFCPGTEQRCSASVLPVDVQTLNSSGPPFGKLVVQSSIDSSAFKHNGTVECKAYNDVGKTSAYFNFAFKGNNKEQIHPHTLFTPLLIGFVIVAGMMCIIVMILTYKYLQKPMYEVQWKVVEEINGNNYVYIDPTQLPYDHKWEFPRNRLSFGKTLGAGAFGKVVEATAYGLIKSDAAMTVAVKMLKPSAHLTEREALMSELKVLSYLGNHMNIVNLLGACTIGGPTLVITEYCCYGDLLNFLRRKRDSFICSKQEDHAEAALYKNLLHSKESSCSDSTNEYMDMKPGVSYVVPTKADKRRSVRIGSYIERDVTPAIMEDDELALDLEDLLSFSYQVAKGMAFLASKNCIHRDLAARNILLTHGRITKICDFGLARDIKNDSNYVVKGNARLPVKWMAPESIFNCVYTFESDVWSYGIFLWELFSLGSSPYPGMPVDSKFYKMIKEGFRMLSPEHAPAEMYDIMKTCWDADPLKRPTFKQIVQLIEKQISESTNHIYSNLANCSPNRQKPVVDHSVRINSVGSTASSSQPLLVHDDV
Description: as §1

HCK = biological target: T6, HCK (Homo sapiens, UniProt P08631); settings: target HCK; read-out: CP1 IC50
T6 construct: ICE Biosciences (Beijing, China), ran the assays
Description: as §1

ROS1 = biological target: T7, ROS1 (Homo sapiens, UniProt P08922); settings: target ROS1; read-out: CP1 IC50
T7 construct: assay run by ICE Biosciences (Beijing, China)
Description: as §1

BTK = biological target: T8, BTK (Homo sapiens, UniProt Q06187); settings: target BTK; read-out: CP1 IC50
T8 construct: ICE Biosciences (Beijing, China), ran the assays
Description: as §1

NTRK3 = biological target: T9, NTRK3 (Homo sapiens, UniProt Q16288)
T9 construct: assay run by ICE Biosciences (Beijing, China)
Description: as §1

CSK = biological target: T10, CSK (Homo sapiens, UniProt P41240); settings: target CSK; read-out: CP1 IC50
T10 construct: ICE Biosciences (Beijing, China), ran the assays
Description: as §1

SYK = biological target: T11, SYK (Homo sapiens, UniProt P43405); settings: target SYK; read-out: CP1 IC50
T11 construct: assay run by ICE Biosciences (Beijing, China)
Description: as §1

ABL1 = biological target: T12, ABL1 (Homo sapiens, UniProt P00519); settings: target ABL1; read-out: CP1 IC50
T12 construct: ICE Biosciences (Beijing, China), ran the assays
Description: as §1

NTRK1 = NTRK1 (Homo sapiens, UniProt P04629)
NTRK1, sequence (P04629 33-796): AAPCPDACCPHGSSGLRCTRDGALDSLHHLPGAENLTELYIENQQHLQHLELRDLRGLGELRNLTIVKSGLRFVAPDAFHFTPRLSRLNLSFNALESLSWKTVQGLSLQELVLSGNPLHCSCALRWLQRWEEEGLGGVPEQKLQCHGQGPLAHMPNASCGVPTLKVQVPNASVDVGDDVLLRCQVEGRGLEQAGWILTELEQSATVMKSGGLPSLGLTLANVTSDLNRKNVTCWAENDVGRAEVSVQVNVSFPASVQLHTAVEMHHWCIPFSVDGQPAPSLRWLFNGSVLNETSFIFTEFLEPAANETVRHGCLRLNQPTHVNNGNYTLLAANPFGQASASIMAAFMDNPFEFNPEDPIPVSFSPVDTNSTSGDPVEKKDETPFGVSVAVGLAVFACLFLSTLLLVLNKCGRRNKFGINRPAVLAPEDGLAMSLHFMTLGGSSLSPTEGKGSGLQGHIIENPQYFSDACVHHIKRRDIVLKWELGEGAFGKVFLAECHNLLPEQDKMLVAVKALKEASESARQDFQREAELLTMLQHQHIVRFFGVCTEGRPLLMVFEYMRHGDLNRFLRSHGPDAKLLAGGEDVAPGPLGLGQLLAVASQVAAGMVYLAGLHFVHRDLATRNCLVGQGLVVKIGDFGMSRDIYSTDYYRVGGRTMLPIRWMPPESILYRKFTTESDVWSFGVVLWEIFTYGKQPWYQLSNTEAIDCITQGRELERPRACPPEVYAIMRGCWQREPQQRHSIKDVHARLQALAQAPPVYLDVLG
Description: as §1

TXK = biological target: T13, TXK (Homo sapiens, UniProt P42681); settings: target TXK; read-out: CP1 IC50
T13 construct: ICE Biosciences (Beijing, China), a contract laboratory that ran the assay
T13 sequence (P42681 whole entry, species assumed): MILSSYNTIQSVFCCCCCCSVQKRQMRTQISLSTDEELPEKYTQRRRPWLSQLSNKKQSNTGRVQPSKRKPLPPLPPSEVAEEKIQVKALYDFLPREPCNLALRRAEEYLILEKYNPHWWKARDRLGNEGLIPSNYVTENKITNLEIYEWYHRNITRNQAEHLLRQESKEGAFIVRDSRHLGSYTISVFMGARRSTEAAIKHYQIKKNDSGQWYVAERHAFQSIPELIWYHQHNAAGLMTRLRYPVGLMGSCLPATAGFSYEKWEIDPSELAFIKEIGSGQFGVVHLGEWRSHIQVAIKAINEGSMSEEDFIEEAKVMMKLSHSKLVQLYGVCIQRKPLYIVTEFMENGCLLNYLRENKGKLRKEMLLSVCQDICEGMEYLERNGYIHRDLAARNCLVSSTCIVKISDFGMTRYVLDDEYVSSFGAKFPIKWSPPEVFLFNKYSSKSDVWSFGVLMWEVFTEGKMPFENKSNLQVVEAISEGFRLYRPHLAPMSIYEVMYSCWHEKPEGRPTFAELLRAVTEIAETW
Description: as §1

TYK2 = biological target: T14, TYK2 (Homo sapiens, UniProt P29597); settings: target TYK2; read-out: CP1 IC50
T14 construct: ICE Biosciences (Beijing, China), a contract laboratory that ran the assay
Description: as §1

FLT1 = biological target: T15, FLT1 (Homo sapiens, UniProt P17948); settings: target FLT1; read-out: CP1 IC50
T15 construct: assay run by ICE Biosciences (Beijing, China)
Description: as §1

CSF1R = biological target: T16, CSF1R (Homo sapiens, UniProt P07333); settings: target CSF1R; read-out: CP1 IC50
T16 construct: ICE Biosciences (Beijing, China), ran the assays
Description: as §1

TEC = biological target: T17, TEC (Homo sapiens, UniProt P42680); settings: target TEC; read-out: CP1 IC50
T17 construct: assay run by ICE Biosciences (Beijing, China)
Description: as §1

PRDX4 = biological target: T18, PRDX4 (Homo sapiens, UniProt Q13162); settings: target PRDX4; read-out: CP1 IC50
T18 construct: ICE Biosciences (Beijing, China), ran the assays
Description: as §1

PRDX5 = biological target: T19, PRDX5 (Homo sapiens, UniProt P30044); settings: target PRDX5; read-out: CP1 IC50
T19 construct: ICE Biosciences (Beijing, China), ran the assays
Description: as §1

ZAP70 = biological target: T20, ZAP70 (Homo sapiens, UniProt P43403); settings: target ZAP70; read-out: CP1 IC50
T20 construct: ICE Biosciences (Beijing, China), a contract laboratory that ran the assay
Description: as §1

PTK6 = biological target: T21, PTK6 (Homo sapiens, UniProt Q13882); settings: target PTK6; read-out: CP1 IC50
T21 construct: assay run by ICE Biosciences (Beijing, China)
T21 sequence (Q13882 whole entry): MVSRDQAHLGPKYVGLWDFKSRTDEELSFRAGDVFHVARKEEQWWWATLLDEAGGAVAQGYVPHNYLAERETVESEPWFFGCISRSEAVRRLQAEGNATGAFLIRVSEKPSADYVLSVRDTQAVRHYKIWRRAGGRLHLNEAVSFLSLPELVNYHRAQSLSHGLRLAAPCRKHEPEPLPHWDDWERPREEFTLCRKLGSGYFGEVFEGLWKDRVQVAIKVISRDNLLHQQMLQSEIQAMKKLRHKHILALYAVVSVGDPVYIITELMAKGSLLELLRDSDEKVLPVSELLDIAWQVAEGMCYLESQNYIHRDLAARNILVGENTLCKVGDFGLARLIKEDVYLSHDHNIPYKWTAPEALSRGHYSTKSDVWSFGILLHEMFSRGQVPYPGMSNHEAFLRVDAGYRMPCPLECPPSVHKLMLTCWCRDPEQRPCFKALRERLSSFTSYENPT
Description: as §1

EPHB1 = EPHB1 (Homo sapiens, UniProt P54762)
Description: as §1

EPHA8 = EPHA8 (Homo sapiens, UniProt P29322); settings: target EPHA8; read-out: CP1 IC50
Description: as §1

MET = MET (Homo sapiens, UniProt P08581); settings: target MET; read-out: CP1 IC50
MET, sequence (P08581 25-1390): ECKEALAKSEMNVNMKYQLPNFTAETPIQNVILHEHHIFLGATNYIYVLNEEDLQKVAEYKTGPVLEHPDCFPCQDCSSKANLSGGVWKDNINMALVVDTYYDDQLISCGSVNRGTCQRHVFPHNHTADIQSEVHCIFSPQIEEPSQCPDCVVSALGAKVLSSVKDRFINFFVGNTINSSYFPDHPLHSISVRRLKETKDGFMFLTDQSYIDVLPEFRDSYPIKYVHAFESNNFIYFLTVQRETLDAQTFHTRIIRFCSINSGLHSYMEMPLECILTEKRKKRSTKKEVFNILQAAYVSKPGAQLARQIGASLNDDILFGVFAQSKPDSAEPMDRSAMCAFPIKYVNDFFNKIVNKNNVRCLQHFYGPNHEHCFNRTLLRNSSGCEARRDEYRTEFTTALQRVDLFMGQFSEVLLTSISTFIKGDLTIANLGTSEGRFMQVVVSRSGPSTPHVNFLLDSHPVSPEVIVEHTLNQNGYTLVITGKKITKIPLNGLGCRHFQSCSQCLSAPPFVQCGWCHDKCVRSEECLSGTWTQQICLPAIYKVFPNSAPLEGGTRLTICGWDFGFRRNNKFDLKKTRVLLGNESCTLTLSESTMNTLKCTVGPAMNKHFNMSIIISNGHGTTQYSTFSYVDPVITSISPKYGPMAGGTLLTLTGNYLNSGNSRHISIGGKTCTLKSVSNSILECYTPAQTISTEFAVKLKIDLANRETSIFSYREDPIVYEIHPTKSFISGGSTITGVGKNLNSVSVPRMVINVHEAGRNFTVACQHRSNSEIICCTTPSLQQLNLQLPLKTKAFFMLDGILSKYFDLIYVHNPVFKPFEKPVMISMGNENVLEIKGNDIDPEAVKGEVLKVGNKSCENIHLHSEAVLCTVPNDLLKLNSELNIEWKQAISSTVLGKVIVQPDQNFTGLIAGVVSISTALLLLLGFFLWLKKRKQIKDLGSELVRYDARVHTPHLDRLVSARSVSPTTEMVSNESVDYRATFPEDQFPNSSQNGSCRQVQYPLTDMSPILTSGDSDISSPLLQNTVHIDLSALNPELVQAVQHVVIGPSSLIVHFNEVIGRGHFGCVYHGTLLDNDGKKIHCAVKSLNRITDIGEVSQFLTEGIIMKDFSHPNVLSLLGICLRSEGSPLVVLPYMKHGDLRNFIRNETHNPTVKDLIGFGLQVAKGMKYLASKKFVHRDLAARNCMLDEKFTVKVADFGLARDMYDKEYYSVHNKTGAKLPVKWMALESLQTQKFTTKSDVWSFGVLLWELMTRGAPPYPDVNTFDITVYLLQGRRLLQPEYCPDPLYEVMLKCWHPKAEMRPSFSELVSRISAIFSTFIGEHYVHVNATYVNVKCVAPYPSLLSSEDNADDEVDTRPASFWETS
Description: as §1

RET = biological target: T22, RET (Homo sapiens, UniProt P07949); settings: target RET; read-out: CP1 IC50
T22 construct: assay run by ICE Biosciences (Beijing, China)
Description: as §1

MERTK = MERTK (Homo sapiens, UniProt Q12866); settings: target MERTK; read-out: CP1 IC50
Description: as §1

BMX = biological target: T23, BMX (Homo sapiens, UniProt P51813); settings: target BMX; read-out: CP1 IC50
T23 construct: ICE Biosciences (Beijing, China), ran the assays
Description: as §1

PTK2B = biological target: T24, PTK2B (Homo sapiens, UniProt Q14289); settings: target PTK2B; read-out: CP1 IC50
T24 construct: assay run by ICE Biosciences (Beijing, China)
Description: as §1

PDGFRB = biological target: T25, PDGFRB (Homo sapiens, UniProt P09619); settings: target PDGFRB; read-out: CP1 IC50
T25 construct: assay run by ICE Biosciences (Beijing, China)
Description: as §1

Measured: IC50

CC1=C(CC(=O)/C=C/c2cccc(CO)c2)C(=O)C=C2C1=CC=C1[C@@]2(C)CC[C@@]2(C)C3C[C@](C)(C(=O)CCc4nc(C(O)C(O)O)c(C)nc4C)CC[C@]3(C)CC[C@]12C (some centres unmarked) [CP1]
> 30 µM: all assays above
